pIC50: −log10 of the molar value.
Assays:
[1] = target: Poly [ADP-ribose] polymerase 1 (Homo sapiens, UniProt P09874); test: PARP Fluorescence Anisotropy Binding Assay
Experimental: (§1) Recombinant full length 6HIS tagged PARP1 protein was diluted to 6 nM with 50 mM Tris pH 8, 0.001% Triton X100, 10 mM MgCl2, 150 mM NaCl and incubated for four hours with an equivalent volume of 2 nM fluorescent probe diluted with 50 mM Tris pH 8, 0.001% Triton X100, 10 mM MgCl2, 150 mM NaCl. The final DMSO concentration of the probe was kept below 1% (v/v).Recombinant full length PARP2 protein was diluted to 6 nM with 50 mM Tris pH 8, 0.001% Triton X100, 10 mM MgCl2, 150 mM NaCl and incubated for four hours with an equivalent volume of 2 nM fluorescent probe diluted with 50 mM Tris pH 8, 0.001% Triton X100, 10 mM MgCl2, 150 mM NaCl. The final DMSO concentration of the probe was kept below 1% (v/v).Recombinant full length PARP3 protein was diluted to 100 nM with 50 mM Tris pH 8, 0.001% Triton X100, 10 mM MgCl2, 150 mM NaCl and incubated for four hours with an equivalent volume of 6 nM fluorescent probe diluted with 50 mM Tris pH 8, 0.001% Triton X100, 10 mM MgCl2, 150 mM NaCl.

[2] = target: Poly [ADP-ribose] polymerase 2 (Homo sapiens, UniProt Q9UGN5); test: PARP Fluorescence Anisotropy Binding Assay
Sequence of Poly [ADP-ribose] polymerase 2 (Q9UGN5 whole entry): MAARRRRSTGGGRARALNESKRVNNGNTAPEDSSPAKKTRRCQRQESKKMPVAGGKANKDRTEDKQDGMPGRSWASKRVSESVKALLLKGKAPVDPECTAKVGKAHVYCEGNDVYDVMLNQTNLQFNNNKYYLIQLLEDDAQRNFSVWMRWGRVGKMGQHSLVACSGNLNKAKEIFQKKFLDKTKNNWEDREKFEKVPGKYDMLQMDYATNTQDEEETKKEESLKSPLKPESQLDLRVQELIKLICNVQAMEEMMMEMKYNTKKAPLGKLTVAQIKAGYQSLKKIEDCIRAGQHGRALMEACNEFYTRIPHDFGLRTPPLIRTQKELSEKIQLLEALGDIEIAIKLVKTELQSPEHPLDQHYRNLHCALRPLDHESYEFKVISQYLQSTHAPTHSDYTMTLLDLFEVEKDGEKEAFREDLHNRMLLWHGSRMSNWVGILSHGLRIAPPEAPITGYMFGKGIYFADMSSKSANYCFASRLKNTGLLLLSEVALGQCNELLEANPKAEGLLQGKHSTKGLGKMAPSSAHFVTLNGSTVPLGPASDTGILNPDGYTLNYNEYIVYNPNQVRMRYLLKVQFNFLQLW
Experimental: as §1

Sequence of Poly [ADP-ribose] polymerase 1 (P09874 whole entry): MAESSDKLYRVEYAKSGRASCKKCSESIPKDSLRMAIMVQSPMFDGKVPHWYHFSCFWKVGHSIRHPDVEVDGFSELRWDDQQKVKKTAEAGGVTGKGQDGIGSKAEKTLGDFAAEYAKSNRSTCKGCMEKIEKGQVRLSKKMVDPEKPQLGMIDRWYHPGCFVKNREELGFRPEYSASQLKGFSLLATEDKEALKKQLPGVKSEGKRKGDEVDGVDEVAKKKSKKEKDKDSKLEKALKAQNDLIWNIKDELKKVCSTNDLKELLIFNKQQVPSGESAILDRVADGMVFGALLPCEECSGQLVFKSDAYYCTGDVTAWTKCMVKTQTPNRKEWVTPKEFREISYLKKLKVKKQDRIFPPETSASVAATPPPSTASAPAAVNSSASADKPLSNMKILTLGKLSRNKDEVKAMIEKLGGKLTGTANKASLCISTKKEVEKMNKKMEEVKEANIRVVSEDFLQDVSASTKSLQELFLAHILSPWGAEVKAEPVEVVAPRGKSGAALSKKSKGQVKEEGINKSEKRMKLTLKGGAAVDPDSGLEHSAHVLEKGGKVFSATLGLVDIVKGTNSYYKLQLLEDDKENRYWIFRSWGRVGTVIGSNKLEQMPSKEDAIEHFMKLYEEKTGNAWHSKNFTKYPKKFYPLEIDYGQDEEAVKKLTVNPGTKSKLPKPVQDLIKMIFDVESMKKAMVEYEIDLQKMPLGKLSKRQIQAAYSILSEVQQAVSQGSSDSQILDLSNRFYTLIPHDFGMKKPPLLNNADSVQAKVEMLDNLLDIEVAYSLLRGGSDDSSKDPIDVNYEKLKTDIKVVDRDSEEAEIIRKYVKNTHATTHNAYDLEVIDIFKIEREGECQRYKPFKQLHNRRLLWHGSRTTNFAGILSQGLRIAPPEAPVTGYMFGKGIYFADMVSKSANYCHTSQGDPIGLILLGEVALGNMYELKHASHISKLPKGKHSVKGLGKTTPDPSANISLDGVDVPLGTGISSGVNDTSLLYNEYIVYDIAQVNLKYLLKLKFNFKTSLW

pIC50 [1]: 8.10
pIC50 [2]: < 4.00
SMILES: CNC(=O)c1ccc(N2CCN(Cc3ccc4nc(OC)c(=O)[nH]c4c3C)CC2)c(F)n1 [US20250082630, Example 58]

— BindingDB's records for patent US20250082630 (AstraZeneca, 2025)
